Assay results: patent US20050013914A1, “Method of sustaining aroma and use thereof” (priority 2001, published 2005)
Like-named read-outs stand apart in the source and are kept apart here.

Columns and labels:
Type in all cases: physicochemical
[1] = Adsorption of aromatic substances on CTS crystalline anhydrate (Example C-3)
Protocol: The following explains the experimental method in detail. […] The amount of the adsorbed aromatic substances was calculated by measuring the weight of the resulting powders and subtracting their starting powder weight (4 g).

[2] = Adsorption of liquid ethanol or acetic acid on saccharide powder (Example C-1); conditions: until mixture did not keep a powder form; for Amount of Adsorbed Acetic Acid: acetic acid adsorbed on 1 g of saccharide; for Amount of Adsorbed Ethanol: ethanol adsorbed on 1 g of saccharide
Source text: CTS crystalline pentahydrate, prepared by the method described in Example B-3, CTS crystalline monohydrate, prepared by the method described in Example B-4, CTS crystalline anhydrate, prepared by the method described in Example B-5, or CTS amorphous anhydrate prepared by the method described in Example B-6, was used for preparation of aroma-retaining material. “ISOELEAT P™”, a branched cyclodextrin commercialized by Maruha corporation, Tokyo, Japan, anhydrous trehalose prepared by the method described in Japanese Patent Kokai No. 111,284/97, “PINEFIBRE™”, a dextrin commercialized by Matsutani Chemical Industries Co., Ltd., Tokyo, Japan, or soluble starch in a reagent grade commercialized by Katayama Chemical Industries, Co., Ltd., Tokyo, Japan, was dried in vacuo at 80° C. for 16 hours as control saccharides. […] The resulting mixture was weighed. The weight of ethanol or acetic acid was calculated by subtracting the pre-measured saccharide weight. The weight of ethanol or acetic acid adsorbed on 1 g of each saccharide was in Table 1.

[3] = Adsorption and 10-day retention of lavender oil, citronellol or phenethyl alcohol on saccharides (Example C-4); conditions: for Amount of the Adsorbed Substance: freshly prepared sample; for Relative Amount of the Retained Substance: preserved at 25° C. for 10 days vs freshly prepared
Source text: The following example is a test to confirm the effect of CTS crystalline hydrate, CTS crystalline anhydrate, or CTS amorphous anhydrate on retaining, as an aromatic substance, lavender oil, citronellol, or phenethyl alcohol. CTS crystalline pentahydrate prepared by the method described in Example B-3, CTS crystalline anhydrate in Example B-5, and CTS amorphous anhydrate in Example B-6 were used as the test saccharides “ISOELEAT P®”, a branched cyclodextrin commercialized by Maruha Corporation, Tokyo, Japan, was used as a control.
In the case of lavender oil, five parts by weight of each of the above saccharides were taken into a glass dish sized 90 mm in diameter and 20 mm in depth, admixed with one part by weight of lavender oil by stirring. Lavender oil was measured by the method described as follows; admixing 2 ml of diethyl ether with 1 g of each of the above samples freshly prepared or after preserved at 25° C. for 10 days; measuring the extracted lavender oil by gas chromatography using “GC-14B” (a gas chromatography commercialized by Shimazu corporation, Kyoto, Japan) equipped with “TC-Wax” (a capillary column sized 0.53 mm in diameter and 25 m in length commercialized by GL Sciences Inc., Tokyo, Japan.
In the case of citronellol or phenethyl alcohol, five parts by weight of each of the above saccharides were taken into a glass dish sized 90 mm in diameter and 20 mm in depth, admixed with one part by weight of citronellol or phenethyl alcohol, and mixed by stirring. The adsorbed citronellol or phenethyl alcohol was measured by admixing 2 ml of diethyl ether with 1 g of each of the above sample freshly prepared or after preserved at 25° C. for 10 days, and measuring the extracted lavender oil by gas chromatography using “GC-14B” (a gas chromatography device commercialized by Shimazu corporation, Kyoto, Japan) equipped with “DB-5” (a capillary column sized 0.25 mm in diameter and 30 m in length commercialized by GL Sciences Inc., Tokyo, Japan).
The amount of the retained aromatic substance in each sample was calculated using the following formula, and the results were shown in Table 4.
Formula: Relative amount of the retained Substance (%)={(an amount of aromatic substance in a sample preserved for 10 days)/(an amount of aromatic substance in a freshly prepared sample)}×100

[4] = aromatic substance adsorbed per 1 g of CTS crystalline anhydrate
[5] = citronellol, listed as Sample 3
[6] = lavender oil, listed as Sample 3
[7] = phenethyl alcohol, listed as Sample 3
[8] = citronellol, listed as Sample 1
[9] = lavender oil, listed as Sample 1
[10] = phenethyl alcohol, listed as Sample 1

Row | Compound | Amount of Adsorbed Substance [1, 4] | also measured
1 | CC1=CCC(C(C)(C)O)CC1 (stereo not drawn) [α-Terpineol] | 0.33 g | 
2 | NCCO [2-Aminoethanol] | 0.13 g | 
3 | CCCCCO [1-Pentanol] | 0.31 g | 
4 | CC(C)=CCCC(C)CCO (centres unmarked) [Citronellol] | 0.39 g | 
5 | OCC1OC2OCC3O[C@H](O[C@H]4C(O)C(CO)OC(OCC5O[C@H](O[C@@H](C1O)C2O)C(O)C(O)[C@@H]5O)C4O)C(O)C(O)[C@@H]3O (some centres unmarked) [CTS crystalline monohydrate] |  | Amount of Adsorbed Acetic Acid [2]: 0.35 g; Amount of Adsorbed Ethanol [2]: 0.45 g
6 | ClC(Cl)Cl [Chloroform] |  | Amount of Adsorbed Substance [1]: 0.32 g
7 | CCC(=O)O [Propionic Acid] | 0.50 g | 
8 | CCCC(=O)O [Butyric Acid] | 0.55 g | 
9 | COc1ccccc1O [o-Methoxyphenol] | 0.42 g | 
10 | CC(C)O [2-Propanol] | 0.48 g | 
11 | CC(C)CO [2-Methyl-1-Propanol] | 0.36 g | 
12 | OCCCc1ccccc1 [3-Phenyl-1-Propanol] | 0.52 g | 
13 | CCCCCOC(C)=O [Pentylacetate] | 0.46 g | 
14 | CC(C)(C)O [2-Methyl-2-Propanol] |  | Amount of Adsorbed Substance [1]: 0.32 g
15 | CCCCCC(=O)O [Capronic Acid] | 0.47 g | 
16 | Bornylacetate | 0.48 g | 
17 | 3-Methyl-1-Propanol | 0.36 g | 
18 | CCO [Ethanol] | 0.50 g | 
19 | O=CO [Formic Acid] |  | Amount of Adsorbed Substance [1]: 0.24 g
20 | CCCCCCO [1-Hexanol] | 0.41 g | 
21 | CCOCC [Diethyl Ether] |  | Amount of Adsorbed Substance [1]: 0.17 g
22 | ClCc1ccccc1 [Benzyl Chloride] | 0.32 g | 
23 | CC(C)=CCC/C(C)=C/CO [Geraniol] | 0.32 g | 
24 | C=C(C)[C@H]1CC=C(C)CC1 [Limonene] | 0.42 g | 

Row | Compound | Amount of Adsorbed Substance [1, 4] | also measured
25 | CC(C)=CCCC(C)CC=O (centres unmarked) [Citronellal] | 0.46 g | 
26 | OCc1ccccc1 [Benzyl Alcohol] | 0.43 g | 
27 | CCCCC(=O)O [Valeric Acid] | 0.47 g | 
28 | CC1=CC=C(C(C)C)CC1 [α-Terpinene] | 0.37 g | 
29 | OCC1OC2OCC3O[C@H](O[C@H]4C(O)C(CO)OC(OCC5O[C@H](O[C@@H](C1O)C2O)C(O)C(O)[C@@H]5O)C4O)C(O)C(O)[C@@H]3O (some centres unmarked) [CTS amorphous anhydrate] |  | Amount of Adsorbed Acetic Acid [2]: 0.47 g; Amount of Adsorbed Ethanol [2]: 0.49 g; Adsorbing capability relative to branched cyclodextrin ([3]; citronellol): about 1.2 fold; Amount of the Adsorbed Substance ([3]; citronellol): 190 mg/g saccharide; Amount of the Adsorbed Substance [3, 5]: 190 mg/g saccharide; Relative Amount of the Retained Substance [3, 5]: 40%; Adsorbing capacity relative to branched cyclodextrin ([3]; lavender oil): about 1.3 fold; Amount of the Adsorbed Substance ([3]; lavender oil, listed as CTS amorphous anhydrte): 185 mg/g saccharide; Amount of the Adsorbed Substance [3, 6]: 185 mg/g saccharide; Relative Amount of the Retained Substance [3, 6]: 8%; Amount of the Adsorbed Substance ([3]; phenethyl alcohol): 180 mg/g saccharide; Amount of the Adsorbed Substance [3, 7]: 180 mg/g saccharide; Relative Amount of the Retained Substance [3, 7]: 12%
30 | CCCCCCCC(=O)O [Octanic Acid] | 0.47 g | 
31 | CO [Methanol] |  | Amount of Adsorbed Substance [1]: 0.61 g
32 | CC(C)(C)N=C=S [t-Butylisothiocyanate] | 0.36 g | 
33 | OCC1OC2OCC3O[C@H](O[C@H]4C(O)C(CO)OC(OCC5O[C@H](O[C@@H](C1O)C2O)C(O)C(O)[C@@H]5O)C4O)C(O)C(O)[C@@H]3O (some centres unmarked) [CTS crystalline pentahydrate] |  | Amount of Adsorbed Acetic Acid [2]: 0.27 g; Amount of Adsorbed Ethanol [2]: 0.32 g; Amount of the Adsorbed Substance ([3]; citronellol, listed as CTS crystalline hydrate): 155 mg/g saccharide; Amount of the Adsorbed Substance [3, 8]: 155 mg/g saccharide; Relative Amount of the Retained Substance [3, 8]: 30%; Amount of the Adsorbed Substance ([3]; lavender oil, listed as CTS crystalline hydrate): 150 mg/g saccharide; Amount of the Adsorbed Substance [3, 9]: 150 mg/g saccharide; Relative Amount of the Retained Substance [3, 9]: 1%; Amount of the Adsorbed Substance ([3]; phenethyl alcohol, listed as CTS crystalline hydrate): 140 mg/g saccharide; Amount of the Adsorbed Substance [3, 10]: 140 mg/g saccharide; Relative Amount of the Retained Substance [3, 10]: 3%
34 | Cc1ccccc1 [Toluene] |  | Amount of Adsorbed Substance [1]: 0.29 g
35 | CC(=O)CC(C)(C)O [Diacetone Alcohol] | 0.28 g | 
36 | 1-Propanol | 0.46 g | 
37 | CC(C)C(=O)O [Isobutyric Acid] | 0.51 g | 
38 | OCCCCO [1,4-Butanediol] |  | Amount of Adsorbed Substance [1]: 0.28 g
39 | CC(=O)O [Acetic Acid] | 0.47 g | 
40 | C=C1CCC2CC1C2(C)C (stereo not drawn) [β-Pinene] | 0.30 g | 
41 | C=CC(C)(O)CCC=C(C)C (centres unmarked) [Linalool] | 0.42 g | 
42 | OCCc1ccccc1 [Phenethyl Alcohol] | 0.40 g | 
43 | c1ccccc1 [Benzene] | 0.14 g | 
44 | CCCCCCCCO [1-Octanol] | 0.28 g | 
45 | CC1=CCC2CC1C2(C)C (stereo not drawn) [α-Pinene] | 0.35 g | 
46 | C=CCN=C=S [Allylisothiocyanate] | 0.37 g | 
47 | CC(C)c1cccc(=O)c(O)c1 [Hinokithiol] | 0.29 g | 
48 | CC1=CCC(O)(C(C)C)CC1 (centres unmarked) [Terpinen-4-ol] | 0.34 g | 
